Patent publication US20090298797A1, “COMBINATION THERAPY FOR THE TREATMENT OF INFLUENZA” (priority 2008, published 2009)
Values joined by “and” are separate entries in the source; they are usually repeats but may differ in a detail not shown here. Identical values can stand only once.

Tests used:
[1] = system: influenza A virus strain A/Vietnam/1194/04 (H5N1); parameters: species or system BALB/c mice; settings: mouse, in vivo
influenza A/H2N2 virus = settings: mouse, in vivo; cited from earlier work
[2] = system: influenza A virus strain A/Vietnam/1194/04 (H5N1); parameters: species or system BALB/c mice; settings: mouse, in vivo; remark: listed apart in the source
[3] = system: IL-1, IL-6, IFN-γ, TNF-α, MIP-1, PGE2, leukotriene; experiment: ELISA of pro-inflammatory cytokines, chemokines, PGE2 and leukotriene in tracheal-pulmonary lavage; type: in vivo, BALB/c mice

SMILES | mean survival time [1] | survival of mice infected by influenza A/H2N2 virus (influenza A/H2N2 virus) [%] | survival [1] | survival rate [1] [%] | TCID50 titer in the tracheal-pulmonary lavage [2] | levels of inflammatory markers IL-6, IFN-γ, TNF-α, MIP-1 and leukotriene in tracheal-pulmonary lavage ([3]; compared with triple therapy (P<0.01 or 0.05) or uninfected normal mice) | IL-1 levels in tracheal-pulmonary lavage ([3]; zanamivir alone and controls vs triple therapy, P>0.05)
Cc1ccc(-c2cc(C(F)(F)F)nn2-c2ccc(S(N)(=O)=O)cc2)cc1 [celecoxib] | about 8.5 days | – | – | – | – | – | –
Cc1ccc(C)c(OCCCC(C)(C)C(=O)O)c1 [gemfibrozil] | about 7.5 days | 52 | no significant improvement | – | – | – | –
Nc1ccc(O)c(C(=O)O)c1 [mesalazine, 5-aminosalicylic acid] | about 8.5 days | – | – | – | – | – | –
CC(=O)N[C@H]1[C@H]([C@H](O)[C@H](O)CO)OC(C(=O)O)=C[C@@H]1N=C(N)N [zanamivir] | 10.7 ± 1.6 days and 8.4 days | – | All mice survived | 13.3 | below our detectable limit | significantly higher | only slightly lower
